From ChEMBL document CHEMBL6087402, “Design, synthesis, and in vitro and in vivo biological evaluation of dihydroartemisinin derivatives as potent anti-cancer agents with ferroptosis-inducing and apoptosis-activating properties” (Eur J Med Chem, 2025)
The source made the active and inactive calls. The calls are words filed in the database; no cut-off is given here.

Assays:
A549 = assay: Anti-proliferative activity against human A549 cells incubated for 72 hrs by MTT assay; type: functional, cell-based; conditions: A549, 72 h
Bel-7402 = assay: Anti-proliferative activity against human Bel-7402 cells incubated for 72 hrs by MTT assay; type: functional, cell-based; conditions: Bel-7402, 72 h
SW-620 = assay: Anti-proliferative activity against human SW620 cells incubated for 72 hrs by MTT assay; type: functional, cell-based; conditions: SW-620, 72 h
HCT-116 [1] = assay: Inhibition of colony formation in human HCT-116 cells incubated for 7 to 12 days by crystal violet staining based analysis; type: functional, cell-based; conditions: dose <= 3.0 µM, time 7-12 day
[2] = Selectivity index, ratio of IC50 for human L02 cells to IC50 for human A549 cells; type: toxicity; conditions: L02 cells versus A549 cells, read-out: Ratio IC50
[3] = Selectivity index, ratio of IC50 for human L02 cells to IC50 for human SW620 cells; type: toxicity; conditions: L02 cells versus SW620 cells, read-out: Ratio IC50
HCT-116 [4] = assay: Inhibition of cell proliferation in human HCT-116 cells incubated for 12 hrs by EdU assay; type: functional, cell-based; conditions: dose <= 3.0 µM
HCT-116 [5] = assay: Inhibition of cell proliferation in human HCT-116 cells at 3 uM incubated for 12 hrs by EdU assay (reference value: 48.14 %); type: functional
HCT-116 [6] = assay: Anti-proliferative activity against human HCT-116 cells assessed as inhibition of STAT3 phosphorylation upto 3 uM incubated for 72 hrs by Western blot analysis; type: functional, cell-based
HCT-116 [7] = assay: Anti-proliferative activity against human HCT-116 cells assessed as reduction in total STAT3 level upto 3 uM incubated for 72 hrs by Western blot analysis; type: functional, cell-based
HCT-116 [8] = assay: Induction of ferroptosis in human HCT-116 cells incubated for 72 hrs in presence of DFO by MTT assay; type: functional, cell-based
HCT-116 [9] = assay: Induction of apoptosis in human HCT-116 cells assessed as necrotic cells at 0.03 uM incubated for 72 hrs by Annexin V-FITC/PI staining based flow cytometry (reference value: 0.33 %); type: functional
HCT-116 [10] = assay: Induction of apoptosis in human HCT-116 cells assessed as early apoptotic cells at 0.3 uM incubated for 72 hrs by Annexin V-FITC/PI staining based flow cytometry (reference value: 1.55 %); type: functional
HCT-116 [11] = assay: Induction of apoptosis in human HCT-116 cells assessed as necrotic cells at 0.3 uM incubated for 72 hrs by Annexin V-FITC/PI staining based flow cytometry (reference value: 0.33 %); type: functional
HCT-116 [12] = assay: Induction of apoptosis in human HCT-116 cells assessed as increase in Bax level upto 3 uM incubated for 72 hrs by Western blot analysis; type: functional, cell-based
HCT-116 [13] = assay: Induction of apoptosis in human HCT-116 cells assessed as decrease in Bcl-2 level upto 3 uM incubated for 72 hrs by Western blot analysis; type: functional, cell-based
HCT-116 [14] = assay: Induction of cell cycle arrest in human HCT-116 cells assessed as accumulation at G0/G1 phase at 0.03 uM incubated for 72 hrs by PI staining based flow cytometry (reference value: 80.71 %); type: functional
HCT-116 [15] = assay: Induction of cell cycle arrest in human HCT-116 cells assessed as accumulation at G0/G1 phase at 3 uM incubated for 72 hrs by PI staining based flow cytometry (reference value: 80.71 %); type: functional
HCT-116 [16] = assay: Induction of cell cycle arrest in human HCT-116 cells assessed as accumulation at S phase at 3 uM incubated for 72 hrs by PI staining based flow cytometry (reference value: 23.49 %); type: functional
HCT-116 [17] = assay: Induction of cell cycle arrest in human HCT-116 cells assessed as accumulation at G2/M phase at 0.03 uM incubated for 72 hrs by PI staining based flow cytometry (reference value: 15.79 %); type: functional
HCT-116 [18] = assay: Induction of cell cycle arrest in human HCT-116 cells assessed as accumulation at G2/M phase at 0.3 uM incubated for 72 hrs by PI staining based flow cytometry (reference value: 15.79 %); type: functional
HCT-116 [19] = assay: Induction of cell cycle arrest in human HCT-116 cells assessed as accumulation at G2/M phase at 3 uM incubated for 72 hrs by PI staining based flow cytometry (reference value: 15.79 %); type: functional
[20] = Toxicity in BALB/c mouse assessed as diarrhea at 100 mg/kg, ip administered continuously for 7 days; type: organism-based; conditions: in vivo, 168 h, time 7 day
[21] = Toxicity in BALB/c mouse assessed as animal death at 100 mg/kg, ip administered continuously for 7 days; type: organism-based; conditions: in vivo, 168 h, time 7 day
[22] = Toxicity in BALB/c mouse assessed as change fur luster at 100 mg/kg, ip administered continuously for 7 days; type: organism-based; conditions: in vivo, 168 h, time 7 day
[23] = Toxicity in BALB/c mouse assessed as apparent damage in spleen at 100 mg/kg, ip administered continuously for 7 days by H and E staining based analysis; type: organism-based; conditions: in vivo, 168 h, time 7 day
[24] = Toxicity in BALB/c mouse assessed as apparent damage in lungs at 100 mg/kg, ip administered continuously for 7 days by H and E staining based analysis; type: organism-based; conditions: in vivo, 168 h, time 7 day
[25] = Toxicity in BALB/c mouse assessed as apparent damage in kidney at 100 mg/kg, ip administered continuously for 7 days by H and E staining based analysis; type: organism-based; conditions: in vivo, 168 h, time 7 day
[26] = Toxicity in BALB/c mouse assessed as lethal dose administered intraperitoneally continuously for 7 days; conditions: in vivo, route ip, time 7 day
HCT-116 [27] = assay: Antitumor activity against human HCT-116 cells xenografted in mouse at 50 mg/kg, ip administered once in every 2 days for 21 days relative to control; type: functional; conditions: HCT-116, 504 h, time 21 day, read-out: TGI
HCT-116 [28] = assay: Antitumor activity against human HCT-116 cells xenografted in mouse assessed as reduction in nuclear-cytoplasmic ratio at 50 mg/kg, ip administered once in every 2 days for 21 days by H and E staining based analysis; type: functional, organism-based; conditions: time 21.0 day

`C[C@@H]1CC[C@H]2[C@@H](C)C(OC(=O)Nc3ccc(Cl)cc3)O[C@@H]3O[C@@]4(C)CC[C@H]1[C@]32OO4` (stereo partly specified) gave an IC50 (A549) of 1000 nM, an IC50 (Bel-7402) of 8410 nM and an IC50 (SW-620) of 600 nM. For the same compound, the inhibition (HCT-116 [1]) was “Dose-dependent-effect”, the selectivity ratio [2] was 16.8 and the selectivity ratio [3] was 28. The inhibition (HCT-116 [4]) was “Dose-dependent-effect”, the inhibition at 3 µM (HCT-116 [5]) was 11.3% and the inhibition (HCT-116 [6]) was “Active”. The Activity (HCT-116 [7]) was “Active”, the Activity (HCT-116 [8]) was “inactive” and the Activity (HCT-116 [9]) was 0.22%. The Activity (HCT-116 [10]) was 9.8%, the Activity (HCT-116 [11]) was 0.071% and the Activity (HCT-116 [12]) was “Active”. For the same compound, the Activity (HCT-116 [13]) was “Active”, the Activity (HCT-116 [14]) was 49.21% and the Activity (HCT-116 [15]) was 42.97%. It also gave an Activity (HCT-116 [16]) of 23.71%, an Activity (HCT-116 [17]) of 25.25% and an Activity (HCT-116 [18]) of 37.8%. The Activity (HCT-116 [19]) was 33.23%, the Activity [20] was “Non-toxic” and the Activity [21] was “Non-toxic”. For the same compound, the Activity [22] was “Non-toxic”, the Activity [23] was “Non-toxic” and the Activity [24] was “Non-toxic”. For the same compound, the Activity [25] was “Non-toxic”, the LD50 at 168 h [26] was > 100 mg/kg and the inhibition in vivo at 50 mg/kg (HCT-116 [27]) was ≤ 58.7%. The Activity (HCT-116 [28]) was “Active”.
